Measured values published in US20190308956A1, “PIPERAZINE DERIVATIVES AS ANTIVIRAL AGENTS WITH INCREASED THERAPEUTIC ACTIVITY” (SERVICIO ANDALUZ DE SALUD, priority 2016, published 2019).
Where two headings read alike, the source gives them in different places.

Columns and labels:
HAdV5-GFP [1] = experiment: Plaque assay, HAdV5-GFP in 293β5 cells; type: cell-based; conditions: for Selectivity Index (SI) HAdV5: ratio CC50 to IC50, HAdV5; for inhibition at 10 µM: read-out: Percentage of plaque formation inhibition, HAdV5-GFP, 10 μM, 293β5 cell line
Summary of the method: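 293β5 cells infected with HAdV5-GFP at 0.06 vp/cell for 2 h at 37° C. Then overlaid with agar/EMEM containing compound (5 to 1 μM stated range; screen run at 10 μM). After 7 days at 37° C., GFP plaques imaged and counted relative to DMSO control.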

HAdV5-GFP [2] = experiment: Entry assay, HAdV5-GFP in A549 cells (GFP expression); type: cell-based
Procedure: 1.3. Entry assay. An initial rapid screening was performed using human A549 epithelial cells (3×10^5 cells/well in Corning black wall, clear bottom 96-well plates) infected with HAdV5-GFP (2,000 vp/cell) in the presence of 50 μM of the candidate antiviral compounds. Virus was preincubated with the compounds (individual and mixed) for 45 minutes at 4° C., and then added to cells. A standard infection curve was generated in parallel by infecting cells in the absence of compounds using serial two-fold dilutions of virus. All reactions were done in triplicate. Cells, virus and compounds were incubated for 48 h at 37° C. and 5% CO2. Infection, as measured by HAdV-mediated GFP expression, was analyzed using a Typhoon 9410 imager (GE Healthcare Life Sciences), and quantified with ImageQuantTL (GE Healthcare Life Sciences).

A549 cells = experiment: Cytotoxicity assay (alamarBlue cell viability); type: cell-based, Human
Summary of the method: (§1)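 Actively dividing A549 cells exposed to compounds for 48 h, then alamarBlue (1/10th in culture medium) added for a further 4 h. CC50 taken as concentration giving 50% cytotoxicity; selectivity index = CC50/IC50, with IC50 from HAdV infection inhibition.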

wild-type HAdV5 = experiment: Virus yield reduction (burst assay, TCID50), HAdV5; type: cell-based; conditions: for Virus yield reduction HAdV5: 50 μM, A549 cells, 48 h, yield with DMSO divided by yield with compound
Procedure: (§2) 1.8. Virus yield reduction. The effect of the active compounds on virus production was evaluated in a burst assay A549 cells were infected with wild-type HAdV5 or HAdV16 (MOI 100) in the presence or absence of 50 μM compounds. After 48 h, cells were harvested and subjected to three rounds of freeze/thaw. Serial dilutions of clarified lysates were titrated on A549 cells and TCID50 values were calculated using an endpoint dilution method.46

[3] = test system: Acinetobacter baumannii strains resistant to colistine; experiment: Screening of inhibition of bacterial growth at 50 μM; type: cell-based; conditions: 5×10^5 CFU/ml, 18 h; for Screening, growth inhibition Ab 11: strain Ab 11, 50 μM; for Screening, growth inhibition Ab 17: strain Ab 17, 50 μM; for Screening, growth inhibition Ab 21R: strain Ab 21R, 50 μM; for Screening, growth inhibition Ab 24: strain Ab 24, 50 μM; for Screening, growth inhibition Ab 14: strain Ab 14, 50 μM
Source text: (§3) All of the strains used were Acinetobacter baumannii strains resistant to colistine: Resistance (R)≥4 Sensibility (S)≤2—All of these strains have been disclosed in Valencia R, Arroyo L A, Conde M, Aldana J M, Torres M J, Fernandez-Cuenca F, et al. Nosocomial outbreak of infection with pan-drug-resistant Acinetobacter baumannii in a tertiary care university hospital. Infection control and hospital epidemiology. 2009; 30(3):257-63. The specific strains used were the following: 1, 10, 11, 14, 16, 17, 19, 20, 21R, 22P, 24, 99 and 113.
Evaluation of the inhibition of the bacterial growth of the 4 families of piperazines derivatives was performed by using a final concentration of 50 μM of each piperazine derivative in a concentration of 5×10^5 CFU/ml of each strain of A. baumannii in 96-well plates.
These plates were incubated for 18 hours at 37° C.

[4] = test system: Acinetobacter baumannii strains resistant to colistine; experiment: Minimal inhibitory concentration (MIC), microdilution in MHBII; type: cell-based; conditions: 5×10^5 CFU/ml, 18 h; for CMI (MIC) Ab 11: strain Ab 11, MHBII; for CMI (MIC) Ab 17: strain Ab 17, MHBII; for CMI (MIC) Ab 21R: strain Ab 21R, MHBII; for CMI (MIC) Ab 24: strain Ab 24, MHBII; for CMI (MIC) Ab 14: strain Ab 14, MHBII
Source text: as §3
Microdilution in cell medium Mueller Hinton Broth II (MHBII). This technique was carried out solely in those piperazines which presented inhibitory activity in the screening study.
We used decreasing concentrations of each piperazine derivative (from 50 μM -0.05 μM) in a concentration of 5×10^5 CFU/ml of each strain of A. baumannii in 96 well plates. These plates were incubated for 18 hours at a temperature 37° C.

HAdV16-GFP = experiment: Plaque assay, HAdV16-GFP in 293β5 cells; type: cell-based; conditions: for Selectivity Index (SI) HAdV16: ratio CC50 to IC50, HAdV16
Procedure: 1.5. Plaque assay. For low MOI infections, active compounds were further evaluated in a plaque assay. 293β5 cells were seeded in 6-well plates at 4×10^5 cells per well in duplicate for each condition. When cells reached 80-90% confluency, they were infected with HAdV5-GFP or HAdV16-GFP (0.06 vp/cell) and rocked for 2 h at 37° C. The inoculum was removed and the cells were washed once with PBS. The cells were then carefully overlaid with 4 ml/well of equal parts of 1.6% […] Difco Agar Noble (Becton, Dickinson & Co, Sparks, MD) and 2× EMEM (BioWhittaker) supplemented with 2x penicillin/streptomycin, 2× L-glutamine and 10% FBS. The mixture also contained compound in concentrations ranging from 5 to 1 μM. Following incubation for 7 days at 37° C., plates were scanned with a Typhoon 9410 imager (GE Healthcare Life Sciences), and plaques were quantified with ImageJ.43

[5] = Cytotoxicity assay (alamarBlue cell viability); type: cell-based, Human; conditions: human, A549 cells, 48 h
Summary of the method: as §1

wild-type HAdV16 = experiment: Virus yield reduction (burst assay, TCID50), HAdV16; type: cell-based; conditions: 50 μM, A549 cells, 48 h, yield with DMSO divided by yield with compound
Procedure: as §2

HCMV (AD169) = experiment: HCMV infectivity assay by quantitative PCR; type: cell-based, human cytomegalovirus; conditions: Human betaherpesvirus 5, AD169, MRC5, MRC-5 cells, 72 h, qPCR, read-out: Inhibition of HCMV DNA replication
Procedure: 1.9. HCMV infectivity assay by quantitative PCR. […] After 72 h of incubation at 37° C., DNA was purified from the cell lysate with the QlAamp DNA Mini Kit (QIAGEN, Valencia, Calif.) following the manufacturer's instructions. TaqMan primers and probes for a region of the US28 gene were designed with the GenScript Real-time PCR (TaqMan) Primer Design software (GenScript). Oligonucleotides sequences were CMV-F: 5′-[…]-3′; CMV-R: 5′-[…]-3′; and CMV-Probe: 5′-[…]-3′. Real-time PCR mixtures consisted of 10 μl the purified DNA, CMV-F at a concentration of 100 nM, CMV-R at a concentration of 300 nM, and CMV-Probe at a concentration of 50 nM in a total volume of 12.5 μl and mixed with 12.5 μl of KAPA PROBE FAST qPCR Master Mix (KAPABiosystems, MA). The PCR cycling protocol was 95° C. for 10 min followed by 40 cycles of 95° C. for 30 sec and 58° C. for 60 sec. Human glyceraldehyde-3-phosphate dehydrogenase (GAPDH) was used as internal control. Oligonucleotides sequences for GAPDH and conditions were those previously reported by Rivera et al.44 For quantification, gene fragment from US28 and GAPDH were cloned into the pGEM-T Easy vector (Promega) and known concentrations of template were used to generate a standard curve in parallel for each experiment. All assays were performed in a C1000 Thermal Cycler apparatus (BioRad).

[6] = A549 cells, 48 h, read-out: CC50

Compound	Inhibition assay in plaque (HAdV5-GFP [1])	Starting Inhibition assay (HAdV5-GFP [2])	CC50 (A549 cells) [µM]	YIELD REDUCTION (wild-type HAdV5)	Screening, growth inhibition Ab 11 [3] [µM]	Screening, growth inhibition Ab 17 [3] [µM]	Screening, growth inhibition Ab 21R [3] [µM]	Screening, growth inhibition Ab 24 [3] [µM]	CMI (MIC) Ab 11 [4] [µM]	CMI (MIC) Ab 17 [4] [µM]	CMI (MIC) Ab 24 [4] [µM]	Selectivity Index (SI) HAdV5 (HAdV5-GFP [1])	IC50 (HAdV5-GFP [1]; read-out: IC50 HAdV5) [µM]	inhibition at 10 µM (HAdV5-GFP [1]) [%]	IC50 (HAdV16-GFP) [µM]	Selectivity Index (SI) HAdV16 (HAdV16-GFP)	CC50 at 48 h [5] [µM]	Virus yield reduction HAdV5 (wild-type HAdV5) [fold]	Virus yield reduction HAdV16 (wild-type HAdV16) [fold]	inhibition at 50 µM (HCMV (AD169)) [%]	other results
CC1CN(C(=O)Cc2ccccc2)CCN1C(=S)Nc1ccc(C#N)cc1 (centres unmarked) [Vip 635]	98.36 ± 2.13	60.06 ± 17.39	175	18.39 ± 5.44	<50	<50	<50	<50	50	50	50	–	–	–	–	–	–	–	–	–	CMI (MIC) Ab 21R [4]: 50 µM
CC(C)(C)OC(=O)N1CCN(C(=O)Nc2ccc([N+](=O)[O-])cc2)C(c2ccccc2)C1 (centres unmarked) [Compound 46, 4-tert-Butoxycarbonyl-1-[(4-nitrophenyl)aminocarbonyl]-2-phenylpiperazine]	–	–	–	–	–	–	–	–	–	–	–	47.3	3.4 ± 0.96	96 to 100	4.8 ± 1.24	33.6	161 ± 45.2	211.7 ± 44.1	265.5 ± 29.1	99.6 ± 0.39	CC50 (A549 cells; [6]): 161 ± 45.2 µM
O=C(c1cc2ccccc2o1)N1CCN(C(=O)Nc2ccc([N+](=O)[O-])cc2)C(c2ccccc2)C1 (centres unmarked) [Compound 59, 4-(Benzofuran-2-carbonyl)-1-[(4-nitrophenyl)aminocarbonyl]-2-phenylpiperazine]	–	–	–	–	–	–	–	–	–	–	–	93.5	2.1 ± 0.1	96 to 100	3.5 ± 1.03	55.4	193.9 ± 1.68	35.7 ± 13.5	34.6 ± 11.6	99.9 ± 0.06	–
CC1CN(C(=O)OC(C)(C)C)CCN1C(=S)Nc1ccc(F)cc1 (centres unmarked) [Vip 585]	92.91 ± 3.82	75.54 ± 13.76	200	12.08 ± 2.78	–	–	–	–	–	–	–	–	–	–	–	–	–	–	–	–	–
CC1CN(C(=O)Cc2ccccc2)CCN1C(=S)Nc1cc(C(F)(F)F)cc(C(F)(F)F)c1 (centres unmarked) [Vip 634]	99.50 ± 1.58	94.46 ± 3.87	130	33.42 ± 10.16	<50	<50	<50	<50	6.25	3.12	6.25	–	–	–	–	–	–	–	–	–	Screening, growth inhibition Ab 14 [3]: <50 µM; CMI (MIC) Ab 14 [4]: 3.12 µM; CMI (MIC) Ab 21R [4]: 3.12 µM
O=C(c1cc2ccccc2o1)N1CCN(C(=O)Nc2ccc(Cl)cc2)C(c2ccccc2)C1 (centres unmarked) [Compound 60, 4-(Benzofuran-2-carbonyl)-1-[(4-chlorophenyl)aminocarbonyl]-2-phenylpiperazine]	–	–	–	–	–	–	–	–	–	–	–	79	2.5 ± 1.17	96 to 100	3.4 ± 0.93	56.9	194 ± 9.19	9.9 ± 3.4	27.4 ± 16.9	98.2 ± 2.1	–
CC1CN(C(=O)Cc2ccccc2)CCN1C(=S)Nc1ccc(Cl)cc1 (centres unmarked) [Vip 629]	84.56 ± 15.72	59.51 ± 17.45	175	–	<50	<50	<50	<50	25	25	50	–	–	–	–	–	–	–	–	–	Screening, growth inhibition Ab 14 [3]: <50 µM; CMI (MIC) Ab 14 [4]: 25 µM; CMI (MIC) Ab 21R [4]: 50 µM
O=C(c1cc2ccccc2o1)N1CCN(C(=O)Nc2ccccc2[N+](=O)[O-])C(c2ccccc2)C1 (centres unmarked) [Compound 64, 4-(Benzofuran-2-carbonyl)-1-[(2-nitrophenyl)aminocarbonyl]-2-phenylpiperazine]	–	–	–	–	–	–	–	–	–	–	–	53.3	2.5 ± 0.03	96 to 100	2.3 ± 0.17	57.3	132 ± 6.01	34.5 ± 12.6	46.5 ± 10.8	97.9 ± 0.9	CC50 (A549 cells; [6]): 132 ± 6.01 µM
CC1CN(C(=O)Cc2ccccc2)CCN1C(=S)Nc1ccc([N+](=O)[O-])cc1 (centres unmarked) [Vip 628]	98.21 ± 3.57	60.79 ± 17.31	210	25.59 ± 10.45	<50	<50	–	<50	50	25	50	–	–	–	–	–	–	–	–	–	IC50 (HAdV5-GFP [1]; read-out: IC50 plaque): 2.04 µM
